Assay results: patent publication US11339442B2, “Methods of detecting insulator dysfunction and oncogene activation for screening, diagnosis and treatment of patients in need thereof” (THE GENERAL HOSPITAL CORPORATION, priority 2015, dated 2022)
Entries after “also recorded” stand apart in the source; their conditions may differ. Where two headings read alike, the source gives them in different places.

How the values were obtained:
Factor VII = conditions: LNP siRNA systems containing the lipid; cited from earlier work
[1] = system: CpG in the CTCF motif of the boundary adjacent to PDGFRA; assay: DNA methylation quantification (bisulfite sequencing), BT142 gliomaspheres treated with demethylating agent; type: cell-based, human; conditions: 5 μM 5-azacytidine for 8 days
Experimental: DNA Methylation Quantification-DNA methylation was analyzed in two ways. For gliomaspheres, genomic DNA was isolated via QiaAmp® DNA minikit (Qiagen®) and subjected to Bisulfite Conversion (EZ DNA Methylation GoldTM Kit-Zymo Research). Bisulfite converted DNA specific to the CTCF binding site (defined by JASPAR^40) in the boundary adjacent to PDGFRA was amplified using the following primers [NT]

CTCF = CTCF occupancy ChIP qPCR at the boundary adjacent to PDGFRA, BT142 gliomaspheres; type: cell-based, human; conditions: 5 μM 5-azacytidine for 8 days
Experimental: Chromatin Immunoprecipitation-Chromatin Immunoprecipitation (ChIP) and sequencing (ChIP-Seq) was performed as described previously^32. Briefly, cultured cells or minced tissue was fixed in 1% formaldehyde and snap frozen in liquid nitrogen and stored at -80° C. for at least overnight. […] ChIP DNA was used to generate sequencing libraries by end repair (End-ItTM DNA repair kit, Epicentre), 3' A base overhang addition via Klenow fragment (NEB), and ligation of barcoded sequencing adapters. Barcoded fragments were amplified via PCR. […] Occupancy of the CTCF site in the boundary element adjacent to the PDGFRA locus was quantified by ChIP qPCR, using the following primers: […] CTCF peak intensity was further normalized as ratio to two invariant peaks, at PSMB1 and SPG11, using the following primers: PSMB1[NT]

[2] = system: acute leukemia of all cell types in relapse; conditions: end of trial, cited from earlier work
newly diagnosed AML = conditions: cited from earlier work
PDGFRA = conditions: BT142 gliomaspheres, 5 μM 5-azacytidine for 8 days
[3] = preclinical studies; cited from earlier work
FIP1L1-PDGFRA = biological target: T1, FIP1L1-PDGFRA (Homo sapiens, UniProt P16234); conditions: FIP1L1-PDGFRA versus BCR-ABL; cited from earlier work
T1 construct: the other entry of the earlier key: FIP1L1 (Q6UN15, Pre-mRNA 3'-end-processing factor FIP1)

[4] = compared with aza; cited from earlier work
GSC6 gliomaspheres = assay: Cell growth assay (CellTiter-Glo), GSC6 cells expressing CRISPR; type: cell-based, human; conditions: 1 μM Dasatinib or 500 nM Crenolanib
Experimental: Cell Growth Assay—For the cell growth assay, 2,500 dissociated viable GSC6 cells expressing CRISPR and either GFP or Insulator targeting sgRNA (see above) were plated in […], of media in an opaque-walled tissue culture 96 well plate, in 1 μM Dasatinib, 500 nM Crenolanib, or equivalent DMSO (1:10,000) as a vehicle control. Cell growth was analyzed at days 3, 5, and 7 for Dasatinib, or days 3, 7, and 10 for Crenolanib, using CellTiter-Glo® reagent (Promega™) following the manufacturer's protocol. Data was normalized across days using an ATP standard curve.

MDS (RAEBT) = conditions: patients with RAEBT, 3-day course 15 mg/m^2 daily; cited from earlier work
advanced leukemia or MDS = conditions: cited from earlier work
CMLs in transformation = conditions: first 13 patients, 100 mg/m^2 over 6 h every 12 h for 5 days; cited from earlier work
[5] = preclinical in vitro studies; cited from earlier work
PDGFRA insulator = assay: ChIP-qPCR for CTCF and H3K9me3 after dCas9 / dCas9-KRAB recruitment, HEK293 cells; type: cell-based
Experimental: Applicants performed these experiments at the PDGFRA insulator in HEK293 cells (FIG. 16A, Top). […] HEK293 cells were seeded into 100 mm cell culture dishes two days before transfection and grown to 60-70% confluency. […] of either dCas9 or dCas9-KRAB constitutive expression vector (JDS286 and Addgene Plasmid #50919 respectively) (FIG. 18) and 1 ug of guide RNA expression vector (pXPR1_noCas, Broad GPP) (FIG. 19) were mixed in 450ul OptiMEM. 27ul of FugeneHD was added and tubes were vortexed for two times one second, incubated at room temp for ten minutes and added dropwise to cell culture dishes.
Cells were harvested three days after transfection and crosslinked in 1% formaldehyde at 37 C for 10 min. ChIP-qPCR was performed as previously described. Briefly, cells were lysed on ice, sonicated in 0.3% SDS for 5 minutes total time at ˜10W power, incubated with the relevant antibody overnight at 4C with rotation after dilution to 0.1% SDS. Antibody-bound chromatin was isolated using protein G magnetic beads. Bound complex is washed several times and eluted off the beads at 65C for 1h with shaking. Eluted complex is treated with RNase for 30 min at 37C and protinase K for 3h at 63C while crosslinks are reversed concurrently. IP DNA is cleaned up using a 2× Ampure XP DNA bead cleanup as per manufacturer's instructions.

OLIG2 insulator = assay: as above; type: cell-based

T1 sequence (P16234 593-1089 limits assumed): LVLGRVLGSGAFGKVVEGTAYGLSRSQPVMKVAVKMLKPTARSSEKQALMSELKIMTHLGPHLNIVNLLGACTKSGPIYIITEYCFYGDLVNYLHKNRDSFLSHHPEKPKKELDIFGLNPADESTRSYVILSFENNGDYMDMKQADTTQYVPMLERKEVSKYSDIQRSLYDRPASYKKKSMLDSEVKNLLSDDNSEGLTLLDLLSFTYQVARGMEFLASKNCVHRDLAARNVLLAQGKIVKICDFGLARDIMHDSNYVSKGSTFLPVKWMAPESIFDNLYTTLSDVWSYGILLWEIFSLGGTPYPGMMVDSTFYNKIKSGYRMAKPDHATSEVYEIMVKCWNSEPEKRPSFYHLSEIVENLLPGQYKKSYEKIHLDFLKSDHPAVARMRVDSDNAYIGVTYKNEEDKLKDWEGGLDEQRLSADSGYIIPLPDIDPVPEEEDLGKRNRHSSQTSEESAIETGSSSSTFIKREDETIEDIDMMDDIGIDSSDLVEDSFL

Compound: 1,2-dilinoleyloxy-keto-N,N-dimethyl-3-aminopropane [DLinKDMA]
- gene silencing potency in hepatocytes in vivo (rank series) (Factor VII): DLinKC2-DMA>DLinKDMA>DLinDMA>>DLinDAP

Compound: Nc1ncn([C@@H]2O[C@H](CO)[C@@H](O)[C@H]2O)c(=O)n1 [5-aza, 5-azacytidine]
- reduction of methylation of the CTCF motif [1]: ~2.5 fold
- increase of CTCF occupancy (CTCF): ~1.7 fold
- overall response rate ([2]; adult patients with acute leukemia in relapse): 9.2%
- patients achieving complete remission [2]: nine
- patients achieving partial remission [2]: two
- patients with complete or partial remission (newly diagnosed AML; 15 adult patients, 75 mg/m^2 daily s.c. for 7 days every 4 weeks): Eight
- average number of cycles to remission (newly diagnosed AML; in vivo): three
- duration of response, average (newly diagnosed AML; patients who achieved complete remission): 8 (range, 6-13) cycles
- duration of response, average (newly diagnosed AML; patients who achieved partial remission): 3 (range, 2-3) cycles
- down-regulation of PDGFRA expression (PDGFRA): ~5 fold

Compound: C[C@@H](Nc1nc(N[C@H](C)C(F)(F)F)nc(-c2cccc(Cl)n2)n1)C(F)(F)F [AG-881]
- blood-brain barrier penetration [3]: fully penetrate the blood-brain barrier

Compound: CCCCC/C=C\C/C=C\CCCCCCCC(=O)OCC(CN(C)C)OC(=O)CCCCCCC/C=C\C/C=C\CCCCC (stereo not shown) [DLinDAP, 1,2-dilineoyl-3-dimethylammonium-propane]
- gene silencing potency in hepatocytes in vivo (rank series) (Factor VII): DLinKC2-DMA>DLinKDMA>DLinDMA>>DLinDAP

Compound: CCCCC/C=C\C/C=C\CCCCCCCCOCC(CN(C)C)OCCCCCCCC/C=C\C/C=C\CCCCC (stereo not shown) [DLinDMA, 1,2-dilinoleyloxy-3-N,N-dimethylaminopropane]
- gene silencing potency in hepatocytes in vivo (rank series) (Factor VII): DLinKC2-DMA>DLinKDMA>DLinDMA>>DLinDAP

Compound: CCCCC/C=C\C/C=C\CCCCCCCCC1(CCCCCCCC/C=C\C/C=C\CCCCC)OCC(CCN(C)C)O1 (stereo not shown) [DLinKC2-DMA, 1,2-dilinoleyl-4-(2-dimethylaminoethyl)-[1,3]-dioxolane]
- gene silencing potency in hepatocytes in vivo (rank series) (Factor VII): DLinKC2-DMA>DLinKDMA>DLinDMA>>DLinDAP

Compound: Cc1ccc(NC(=O)c2ccc(CN3CCN(C)CC3)cc2)cc1Nc1nccc(-c2cccnc2)n1 [Imatinib]
- IC50 lower as compared to BCR-ABL (FIP1L1-PDGFRA): 250 fold

Compound: O=c1ncccn1[C@@H]1O[C@H](CO)[C@@H](O)[C@H]1O [Zebularine]
- stability [4]: more stable than aza

Compound: CC1(COc2ccc3c(c2)ncn3-c2ccc3cccc(N4CCC(N)CC4)c3n2)COC1 [crenolanib]
- effect on the growth advantage of insulator CRISPR gliomaspheres (GSC6 gliomaspheres): abrogated
- effect on the growth advantage of insulator CRISPR gliomaspheres (GSC6 gliomaspheres; listed as Crenolanib): eliminated

Compound: Nc1ncn([C@H]2C[C@H](O)[C@@H](CO)O2)c(=O)n1 [decitabine, 5-aza-2′-deoxycytidine]
- percentage of responders (MDS (RAEBT)): 70%
- complete response (CR) (advanced leukemia or MDS; 37 patients with AML): 14%
- partial response (PR) (advanced leukemia or MDS; 37 patients with AML): 8%
- response rate (advanced leukemia or MDS; comparison group to the higher doses / longer cycles): 45%
- patients achieving CR (advanced leukemia or MDS; five patients with CML): two
- patients achieving PR (advanced leukemia or MDS; five patients with CML): two
- response rate (advanced leukemia or MDS; higher doses (20 mg/m^2 for 10 days) and longer treatment cycles (15 mg/m2 for 20 days)): 11%
- patients in whom only one cycle of therapy was required to achieve a CR (advanced leukemia or MDS; in vivo): eight of nine
- objective responses (advanced leukemia or MDS; overall, 48 patients): 33%
- complete response (CR) (advanced leukemia or MDS; seven patients with MDS): 28.5%
- patients achieving PR (advanced leukemia or MDS; seven patients with MDS): two
- adverse effect (CMLs in transformation): severe prolonged myelosuppression

Compound: Cc1cn(-c2cc(NC(=O)c3ccc(C)c(Nc4nccc(-c5cccnc5)n4)c3)cc(C(F)(F)F)c2)cn1 [nilotinib]
- potency relative to imatinib (factor) [5]: 20 to 50

Compound: dCas9: enzymatically inactive CRISPR enzyme recruited by guide RNA to a CTCF insulator
- CTCF binding at the PDGFRA insulator (PDGFRA insulator): potently disrupts CTCF binding; also recorded: can reduce CTCF binding
- CTCF binding at the OLIG2 insulator (OLIG2 insulator): can disrupt CTCF binding; also recorded: can reduce CTCF binding
